The values below come from the kinase profiling compilation of Christmann-Franck et al. (2016).

Each structure is given as a SMILES string.

One test has as its target PIM2 (human) (UniProt Q9P1W9). Put plainly: SelectScreen, TR FRET. In general terms: Time-resolved FRET reads energy transfer from a long-lived donor to a nearby acceptor.
For another test, the target named is PIM1 (human) (UniProt P11309). Briefly: SelectScreen, TR FRET.
The target in another test is CDK3 (human) (UniProt Q00526). Briefly: KINOMEscan competition binding. The conditions noted are these: compound 10.0 µM.
A further test concerns the target RIPK1 (human) (UniProt Q13546). Put plainly: KINOMEscan competition binding. The conditions noted are these: compound 10.0 µM.
Another test addresses STK4 (human) (UniProt Q13043). Briefly: KINOMEscan competition binding. The conditions noted are these: compound 10.0 µM.
A further test addresses FGR (human) (UniProt P09769). Put plainly: KINOMEscan competition binding. Particulars: compound 10.0 µM.
The target in the next test is FLT1 (human) (UniProt P17948). Put plainly: KINOMEscan competition binding. Particulars: compound 10.0 µM.
Test [1] relates to ABL1 (human), P00519 [E255K]. Briefly: KINOMEscan competition binding. Particulars: compound 10.0 µM.
The target of a further test is DDR2 (human) (UniProt Q16832). Put plainly: KINOMEscan competition binding. Particulars: compound 10.0 µM.
For the next test, the target named is MAPK4 (human) (UniProt P31152). Briefly: KINOMEscan competition binding. The conditions noted are these: compound 10.0 µM.
The target in another test is HCK (human) (UniProt P08631). Briefly: KINOMEscan competition binding. Particulars: compound 10.0 µM.
In a further test the target is TESK1 (human) (UniProt Q15569). Put plainly: KINOMEscan competition binding. Particulars: compound 10.0 µM.
A further test addresses CAMK2G (human) (UniProt Q13555). Briefly: KINOMEscan competition binding. The conditions noted are these: compound 10.0 µM.
Another test concerns the target MAPK9 (human) (UniProt P45984). Briefly: KINOMEscan competition binding. The conditions noted are these: compound 10.0 µM.
The target of another test is MARK4 (human) (UniProt Q96L34). Put plainly: KINOMEscan competition binding. The conditions noted are these: compound 10.0 µM.
The next test concerns the target FGFR4 (human) (UniProt P22455). Put plainly: KINOMEscan competition binding. The conditions noted are these: compound 10.0 µM.
Test [2] concerns BRAF (human), P15056 [V600E]. Briefly: KINOMEscan competition binding. Particulars: compound 10.0 µM.
For a further test, the target named is BRAF (human) (UniProt P15056). Put plainly: KINOMEscan competition binding. The conditions noted are these: compound 10.0 µM.
The target in the next test is HIPK2 (human) (UniProt Q9H2X6). Put plainly: SelectScreen, TR FRET.
For the next test, the target named is HIPK1 (human) (UniProt Q86Z02). Put plainly: SelectScreen, TR FRET.

Sequence of MAPK9 (human) (P45984 whole entry, looked up): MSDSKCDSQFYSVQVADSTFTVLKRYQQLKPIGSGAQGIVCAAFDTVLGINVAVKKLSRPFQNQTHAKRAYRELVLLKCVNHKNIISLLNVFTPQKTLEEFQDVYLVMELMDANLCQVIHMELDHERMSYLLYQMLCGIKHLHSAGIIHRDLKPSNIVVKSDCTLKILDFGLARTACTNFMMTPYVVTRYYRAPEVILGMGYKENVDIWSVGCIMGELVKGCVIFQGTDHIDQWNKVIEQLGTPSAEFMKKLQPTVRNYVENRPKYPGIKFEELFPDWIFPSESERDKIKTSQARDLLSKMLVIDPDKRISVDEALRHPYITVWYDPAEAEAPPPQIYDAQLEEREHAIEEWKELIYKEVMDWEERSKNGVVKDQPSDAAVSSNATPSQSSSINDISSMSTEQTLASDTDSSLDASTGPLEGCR
Sequence of TESK1 (human) (Q15569 whole entry, looked up): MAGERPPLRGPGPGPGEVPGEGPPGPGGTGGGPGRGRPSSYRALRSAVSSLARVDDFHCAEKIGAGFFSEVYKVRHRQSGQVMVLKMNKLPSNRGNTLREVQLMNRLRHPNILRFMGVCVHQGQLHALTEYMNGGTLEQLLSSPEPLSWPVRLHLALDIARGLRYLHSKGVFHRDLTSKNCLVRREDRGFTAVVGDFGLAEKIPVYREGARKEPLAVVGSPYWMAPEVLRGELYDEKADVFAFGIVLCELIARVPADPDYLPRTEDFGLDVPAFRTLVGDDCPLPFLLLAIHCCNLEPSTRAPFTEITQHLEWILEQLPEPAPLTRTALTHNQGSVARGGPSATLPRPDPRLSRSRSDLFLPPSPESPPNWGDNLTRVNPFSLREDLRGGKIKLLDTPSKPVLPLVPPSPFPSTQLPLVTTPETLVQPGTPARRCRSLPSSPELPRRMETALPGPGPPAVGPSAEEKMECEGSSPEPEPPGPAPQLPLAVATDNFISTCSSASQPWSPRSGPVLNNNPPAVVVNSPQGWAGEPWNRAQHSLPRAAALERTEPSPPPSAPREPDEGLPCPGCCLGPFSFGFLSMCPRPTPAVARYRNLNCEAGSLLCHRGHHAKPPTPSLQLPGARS
Sequence of PIM1 (human) (P11309 whole entry, looked up): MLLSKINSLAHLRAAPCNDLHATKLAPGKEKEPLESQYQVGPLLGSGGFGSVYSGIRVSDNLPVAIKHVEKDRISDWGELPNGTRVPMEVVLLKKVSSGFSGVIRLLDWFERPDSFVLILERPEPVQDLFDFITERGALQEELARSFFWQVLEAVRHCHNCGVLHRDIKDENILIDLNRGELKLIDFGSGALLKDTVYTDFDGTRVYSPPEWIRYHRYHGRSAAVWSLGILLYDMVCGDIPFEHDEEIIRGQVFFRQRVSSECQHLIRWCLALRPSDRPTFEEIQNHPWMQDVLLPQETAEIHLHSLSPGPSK
Sequence of FGFR4 (human) (P22455 whole entry, looked up): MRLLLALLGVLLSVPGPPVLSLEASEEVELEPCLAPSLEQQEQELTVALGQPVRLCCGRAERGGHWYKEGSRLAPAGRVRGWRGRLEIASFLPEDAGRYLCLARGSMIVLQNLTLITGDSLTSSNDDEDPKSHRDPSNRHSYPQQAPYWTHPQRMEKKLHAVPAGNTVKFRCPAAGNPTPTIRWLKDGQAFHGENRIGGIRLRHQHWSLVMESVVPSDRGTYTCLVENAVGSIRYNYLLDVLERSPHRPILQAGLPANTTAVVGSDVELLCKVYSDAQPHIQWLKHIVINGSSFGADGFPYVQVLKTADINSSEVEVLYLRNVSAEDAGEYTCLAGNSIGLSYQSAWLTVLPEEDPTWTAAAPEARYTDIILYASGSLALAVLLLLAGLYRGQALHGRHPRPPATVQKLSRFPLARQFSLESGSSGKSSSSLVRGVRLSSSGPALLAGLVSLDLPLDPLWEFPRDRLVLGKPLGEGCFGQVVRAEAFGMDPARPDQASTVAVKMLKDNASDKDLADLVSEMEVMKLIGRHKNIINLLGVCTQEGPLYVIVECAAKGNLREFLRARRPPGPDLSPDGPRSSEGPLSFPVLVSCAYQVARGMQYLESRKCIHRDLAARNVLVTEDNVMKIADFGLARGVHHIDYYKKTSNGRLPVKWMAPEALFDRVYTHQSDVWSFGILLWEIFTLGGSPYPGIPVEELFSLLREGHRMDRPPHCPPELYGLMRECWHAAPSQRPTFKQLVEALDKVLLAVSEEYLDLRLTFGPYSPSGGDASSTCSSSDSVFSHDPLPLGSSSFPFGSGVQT
Sequence of HCK (human) (P08631 whole entry, looked up): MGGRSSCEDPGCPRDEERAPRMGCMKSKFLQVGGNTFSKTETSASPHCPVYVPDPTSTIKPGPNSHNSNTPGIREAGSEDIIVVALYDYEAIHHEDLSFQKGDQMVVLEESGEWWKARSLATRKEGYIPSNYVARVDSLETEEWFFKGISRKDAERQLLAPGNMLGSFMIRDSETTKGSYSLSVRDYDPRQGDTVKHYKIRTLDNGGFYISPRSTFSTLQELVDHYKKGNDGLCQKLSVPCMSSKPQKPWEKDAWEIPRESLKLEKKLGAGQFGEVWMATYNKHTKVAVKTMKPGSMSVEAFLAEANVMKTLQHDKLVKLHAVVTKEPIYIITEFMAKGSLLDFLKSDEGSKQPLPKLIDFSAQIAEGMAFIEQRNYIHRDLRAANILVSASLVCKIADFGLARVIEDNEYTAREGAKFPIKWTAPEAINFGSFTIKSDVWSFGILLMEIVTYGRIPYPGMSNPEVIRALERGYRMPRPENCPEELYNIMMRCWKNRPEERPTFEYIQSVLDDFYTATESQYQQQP
Sequence of PIM2 (human) (Q9P1W9 whole entry, looked up): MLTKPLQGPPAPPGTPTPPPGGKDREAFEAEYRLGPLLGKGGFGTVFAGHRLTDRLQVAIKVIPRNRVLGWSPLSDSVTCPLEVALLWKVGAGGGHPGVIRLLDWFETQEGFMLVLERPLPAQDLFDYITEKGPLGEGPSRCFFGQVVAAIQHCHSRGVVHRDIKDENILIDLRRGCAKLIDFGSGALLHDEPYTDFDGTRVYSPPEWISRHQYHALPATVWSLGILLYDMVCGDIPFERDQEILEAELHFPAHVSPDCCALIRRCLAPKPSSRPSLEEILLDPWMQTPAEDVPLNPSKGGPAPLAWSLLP
Sequence of FLT1 (human) (P17948 whole entry, looked up): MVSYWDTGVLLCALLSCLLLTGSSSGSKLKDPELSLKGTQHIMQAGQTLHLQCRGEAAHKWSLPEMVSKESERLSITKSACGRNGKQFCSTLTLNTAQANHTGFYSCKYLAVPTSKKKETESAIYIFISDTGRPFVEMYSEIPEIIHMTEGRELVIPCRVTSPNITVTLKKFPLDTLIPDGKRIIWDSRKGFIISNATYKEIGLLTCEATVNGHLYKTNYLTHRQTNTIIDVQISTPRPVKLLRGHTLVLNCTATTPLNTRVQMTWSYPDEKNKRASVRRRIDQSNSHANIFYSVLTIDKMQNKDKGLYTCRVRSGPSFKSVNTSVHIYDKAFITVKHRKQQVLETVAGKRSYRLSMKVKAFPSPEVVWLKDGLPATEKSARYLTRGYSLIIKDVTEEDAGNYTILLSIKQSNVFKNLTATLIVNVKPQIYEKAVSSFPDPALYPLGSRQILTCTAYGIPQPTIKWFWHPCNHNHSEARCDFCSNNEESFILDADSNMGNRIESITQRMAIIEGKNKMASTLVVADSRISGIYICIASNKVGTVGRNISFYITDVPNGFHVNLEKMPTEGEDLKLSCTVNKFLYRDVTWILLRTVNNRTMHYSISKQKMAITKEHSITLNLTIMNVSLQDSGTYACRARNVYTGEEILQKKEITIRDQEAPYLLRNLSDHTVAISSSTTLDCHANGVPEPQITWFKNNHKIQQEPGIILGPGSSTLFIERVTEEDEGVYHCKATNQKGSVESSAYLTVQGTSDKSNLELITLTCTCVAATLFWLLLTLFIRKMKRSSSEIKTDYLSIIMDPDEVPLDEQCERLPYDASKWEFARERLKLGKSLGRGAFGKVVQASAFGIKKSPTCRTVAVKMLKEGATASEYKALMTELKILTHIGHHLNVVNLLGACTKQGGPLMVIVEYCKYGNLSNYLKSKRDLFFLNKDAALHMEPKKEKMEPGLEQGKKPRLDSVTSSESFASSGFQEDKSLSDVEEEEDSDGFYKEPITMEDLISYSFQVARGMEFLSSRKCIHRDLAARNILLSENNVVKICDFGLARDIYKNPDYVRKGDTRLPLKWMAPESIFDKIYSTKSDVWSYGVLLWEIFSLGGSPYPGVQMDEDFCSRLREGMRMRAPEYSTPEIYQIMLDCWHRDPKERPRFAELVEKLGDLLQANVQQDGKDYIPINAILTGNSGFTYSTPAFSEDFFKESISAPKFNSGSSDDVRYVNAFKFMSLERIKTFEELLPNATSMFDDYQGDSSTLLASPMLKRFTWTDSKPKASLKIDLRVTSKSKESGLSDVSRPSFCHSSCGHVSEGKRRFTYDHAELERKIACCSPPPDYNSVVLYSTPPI
Sequence of RIPK1 (human) (Q13546 whole entry, looked up): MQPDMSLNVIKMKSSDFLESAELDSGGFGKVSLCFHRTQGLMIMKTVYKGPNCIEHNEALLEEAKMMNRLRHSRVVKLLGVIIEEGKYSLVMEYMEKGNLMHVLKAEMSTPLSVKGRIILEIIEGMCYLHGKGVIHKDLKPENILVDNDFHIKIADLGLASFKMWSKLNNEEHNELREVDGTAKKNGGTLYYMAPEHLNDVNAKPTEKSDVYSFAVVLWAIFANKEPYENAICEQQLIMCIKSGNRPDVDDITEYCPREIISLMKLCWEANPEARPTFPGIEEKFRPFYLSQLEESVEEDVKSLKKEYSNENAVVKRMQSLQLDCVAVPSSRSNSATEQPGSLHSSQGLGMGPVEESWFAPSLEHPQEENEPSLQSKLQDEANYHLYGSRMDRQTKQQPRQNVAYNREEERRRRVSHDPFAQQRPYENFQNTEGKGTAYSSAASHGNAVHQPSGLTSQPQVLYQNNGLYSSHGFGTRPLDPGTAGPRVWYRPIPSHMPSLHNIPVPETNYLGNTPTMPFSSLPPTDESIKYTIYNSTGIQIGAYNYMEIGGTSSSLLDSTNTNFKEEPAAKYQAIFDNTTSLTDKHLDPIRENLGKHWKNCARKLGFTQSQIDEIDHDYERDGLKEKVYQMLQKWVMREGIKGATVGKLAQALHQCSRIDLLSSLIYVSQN

One may read the IC50 as the concentration that gives 50% inhibition. The low end stands for greater potency, the high end for weaker potency. As to `N=C1NC(=O)/C(=C/c2ccc(-c3ccccc3O)o2)S1`, the results for the IC50 against PIM2 (human) and against PIM1 (human) were 114 nM and 94 nM, respectively. This compound also returned a kinase still bound, per cent of control on CDK3 (human) of 24%.
As to `COc1cc(N2CCN(C)CC2)ccc1Nc1ncc2c(n1)Nc1ccccc1NC2=O`, the kinase still bound, per cent of control at RIPK1 (human) turned out to be 100%; on STK4 (human) it was 100%; at FGR (human), 73%; on FLT1 (human), 45%; in test [1], 19%; at CDK3 (human), 85%. The kinase still bound, per cent of control worked out at 100% on DDR2 (human); 99% on MAPK4 (human); 63% on HCK (human); 100% at TESK1 (human); 100% on CAMK2G (human); 69% at MAPK9 (human). The kinase still bound, per cent of control on MARK4 (human) is 84%; at FGFR4 (human), 100%.
Consider `COc1cc(N2CCN(C)CC2)ccc1Nc1ncc2c(n1)N(C)c1sccc1C(=O)N2C`, for which the kinase still bound, per cent of control at RIPK1 (human) turned out to be 100%; at STK4 (human) it was 100%; at FGR (human) it was 98%; at FLT1 (human), 100%; in [1] it was 85%; on CDK3 (human), 100%. The kinase still bound, per cent of control at DDR2 (human) was found to be 91%; on MAPK4 (human) it was 66%; on HCK (human), 100%; at TESK1 (human) it was 90%; at CAMK2G (human) it was 57%; on MAPK9 (human), 82%. Further, the results for the kinase still bound, per cent of control at MARK4 (human) and on FGFR4 (human) were 59% and 40%, respectively.
For the compound `N=C1NC(=O)/C(=C/c2ccc(-c3ccc(C(N)=O)cc3O)o2)S1`, the values for the IC50 against PIM2 (human) and on PIM1 (human) were 57 nM and 32 nM, respectively. Besides, the kinase still bound, per cent of control at CDK3 (human) was determined as 30%.
Turning to `COc1cc(N2CCC(O)CC2)ccc1Nc1ncc2c(n1)N1CCc3cccc(c31)C(=O)N2C`, the kinase still bound, per cent of control on RIPK1 (human) turned out to be 100%; at STK4 (human), 78%; at FGR (human) it was 93%; on FLT1 (human), 100%; in test [1], 90%; at CDK3 (human), 97%. Also, the kinase still bound, per cent of control worked out at 90% on DDR2 (human); 100% on MAPK4 (human); 100% on HCK (human); 100% on TESK1 (human); 80% at CAMK2G (human); 51% on MAPK9 (human). Moreover, the kinase still bound, per cent of control on MARK4 (human) was 86%; on FGFR4 (human) it was 56%.
Regarding `N=C1NC(=O)/C(=C/c2ccc(-c3csc4ccccc34)o2)S1`, the IC50 at PIM2 (human) was found to be 628 nM; against PIM1 (human), 3270 nM.
Regarding `CS(=O)(=O)Nc1ccc(-c2cncc(/C=C3\SC(=N)NC3=O)c2)cc1`, the kinase still bound, per cent of control in [2] is 34%; on BRAF (human) it was 32%.
As to `N=C1NC(=O)/C(=C/c2ccc(-c3ccc(F)cc3O)o2)S1`, the results for the IC50 against PIM2 (human) and at PIM1 (human) were 96 nM and 110 nM, respectively. Besides, on CDK3 (human), the kinase still bound, per cent of control is 6.5%.
In the case of `Nc1cccc(-c2cc(/C=C3\SC(=O)NC3=O)c[nH]c2=O)c1`, the IC50 on HIPK2 (human) turned out to be 166 nM; on HIPK1 (human) it was 244 nM. This compound yielded a kinase still bound, per cent of control at DDR2 (human) of 33%.
For the compound `O=C1NC(=S)S/C1=C\c1ccc(-c2cncc3ccccc23)o1`, the IC50 came to 92 nM against PIM2 (human) and 284 nM against PIM1 (human). For the same compound, the kinase still bound, per cent of control at FLT1 (human) came to 28%; on CAMK2G (human), 32%; at MAPK9 (human), 20%.
On to `CSC1=NC(=O)/C(=C/c2c[nH]c(=O)c(-c3ccc(NS(C)(=O)=O)cc3)c2)S1`, for which the IC50 turned out to be 618 nM at HIPK2 (human) and 1960 nM on HIPK1 (human).
Take `CN1CCN(c2ccc(C(=O)Nc3ncc4c(n3)N(C)c3ccccc3C(=O)N4C)cc2)CC1`: the kinase still bound, per cent of control at RIPK1 (human) amounted to 100%; on STK4 (human), 93%; at FGR (human), 100%; on FLT1 (human) it was 100%; in [1], 100%; on CDK3 (human) it was 100%. Moreover, the kinase still bound, per cent of control came to 100% on DDR2 (human); 100% on MAPK4 (human); 100% at HCK (human); 91% at TESK1 (human); 100% on CAMK2G (human); 100% at MAPK9 (human). For the same compound, the kinase still bound, per cent of control on MARK4 (human) is 91%; at FGFR4 (human) it was 100%.
With `CS(=O)(=O)Nc1ccc(-c2ncc(/C=C3\SC(=N)NC3=O)s2)cc1`, the kinase still bound, per cent of control at FGR (human) is 26%.
With `N=C1NC(=O)/C(=C/c2c[nH]c(=O)c(-c3ccc(N4CCNCC4)nc3)c2)S1`, the IC50 on HIPK2 (human) stood at 289 nM; at HIPK1 (human), 507 nM.
In the case of `CS(=O)(=O)Nc1ccc(-c2cc(/C=C3\SC(=N)NC3=O)c[nH]c2=O)cc1`, the IC50 is 300 nM at HIPK2 (human) and 1160 nM against HIPK1 (human).
Consider `CN1C(=O)c2ccccc2N(C)c2nc(NS(=O)(=O)c3ccc(N)cc3)ncc21`, for which the kinase still bound, per cent of control on RIPK1 (human) came to 100%; on STK4 (human) it was 71%; on FGR (human), 100%; at FLT1 (human), 100%; in test [1], 100%; at CDK3 (human), 100%. Also, the kinase still bound, per cent of control on DDR2 (human) came to 98%; on MAPK4 (human), 88%; on HCK (human), 100%; on TESK1 (human) it was 100%; on CAMK2G (human), 100%; at MAPK9 (human) it was 100%. Further, the kinase still bound, per cent of control on MARK4 (human) is 93%; at FGFR4 (human) it was 100%.
For `COc1cc(N2CCN(C)CC2)ccc1Nc1ncc2c(n1)N(C)c1ccccc1N(C)C2=O`, the kinase still bound, per cent of control came out at 100% at RIPK1 (human); 100% at STK4 (human); 100% at FGR (human); 100% at FLT1 (human); 100% in [1]; 96% on CDK3 (human). Also, the kinase still bound, per cent of control turned out to be 100% at DDR2 (human); 100% at MAPK4 (human); 96% at HCK (human); 76% on TESK1 (human); 95% on CAMK2G (human); 87% at MAPK9 (human). The figures for the kinase still bound, per cent of control at MARK4 (human) and at FGFR4 (human) were 63% and 97%, respectively.
